In the assay the test system is SARS-CoV-2 XBB 1.16 variant. More on the design: species or system K18-hACE2 mice. Particulars: mouse; for Decrease of lung viral load (viral RNA copies) compared to the vehicle group: in vivo.

This note sets out measurements from article PMC10914734 (Signal Transduction and Targeted Therapy, 2024).

Like-named read-outs stand apart in the source and are kept apart here.

For `O=C(NCc1ccccc1)C(=O)[C@H](C[C@@H]1CCCNC1=O)NC(=O)[C@H](Cc1ccc(F)cc1)NC(=O)c1cc2ccccc2o1` [14a, N-((S)-1-(((S)-4-(benzylamino)-3,4-dioxo-1-((S)-2-oxopiperidin-3-yl)butan-2-yl)amino)-3-(4-fluorophenyl)-1-oxopropan-2-yl)benzofuran-2-carboxamide], the “Effect against SARS-CoV-2 XBB 1.16 variant in vivo (in words)” value is on record as “potent effect”. Moreover, the “Decrease of lung viral load (viral RNA copies) compared to the vehicle group” value (10 mg/kg) worked out at 2.0 log10 units. For the same molecule, the “Decrease of lung viral load (viral RNA copies) compared to the vehicle group” value (20 mg/kg) was found to be 2.6 log10 units.
As to `O=C(NCc1ccccc1)C(=O)[C@H](C[C@@H]1CCCNC1=O)NC(=O)[C@H](CC1CCCCC1)NC(=O)c1cc2ccccc2o1` [14b, N-((S)-1-(((S)-4-(benzylamino)-3,4-dioxo-1-((S)-2-oxopiperidin-3-yl)butan-2-yl)amino)-3-cyclohexyl-1-oxopropan-2-yl)benzofuran-2-carboxamide], the “Effect against SARS-CoV-2 XBB 1.16 variant in vivo (in words)” value is given as “potent effect”.
